Measurements taken from patent US11746374B2, “Methods and platform for screening and selecting metabolites and their receptors” (BOARD OF REGENTS, THE UNIVERSITY OF TEXAS SYSTEM, priority 2017, dated 2023).
“And” between values parts separate entries of the source, which are not always exact repeats. Identical values can stand only once. “Also recorded” adds a separate entry of the source.

Key:
[1] = tested on: BY4741; assay: Metabolite toxicity determined by growth assays; type: cell-based, Saccharomyces cerevisiae; conditions: 4 mM of each metabolite, compared to synthetic media only
Description: Measurements of cell density (OD600) were taken in 10 min intervals. Each condition was tested in triplicate. For hexanoate growth conditions of aromatic prenyltransferase variants, transformed cells were seeded for 48 hrs and diluted 1:25 in 96-well grow-blocks in media containing 1-5 mM hexanoate. Measurements of cell density were taken in 24 hr intervals using an F500 plate reader. Final screening was performed with 10 mM hexanoate, 1% acetate supplemented synthetic complete media in 50 mL culture volumes.

[2] = biological target: T1, 3,5,7-trioxododecanoyl-CoA synthase (OLS) (Cannabis sativa, UniProt B1Q2B6); conditions: cited from earlier work
T1 sequence (B1Q2B6 1-385): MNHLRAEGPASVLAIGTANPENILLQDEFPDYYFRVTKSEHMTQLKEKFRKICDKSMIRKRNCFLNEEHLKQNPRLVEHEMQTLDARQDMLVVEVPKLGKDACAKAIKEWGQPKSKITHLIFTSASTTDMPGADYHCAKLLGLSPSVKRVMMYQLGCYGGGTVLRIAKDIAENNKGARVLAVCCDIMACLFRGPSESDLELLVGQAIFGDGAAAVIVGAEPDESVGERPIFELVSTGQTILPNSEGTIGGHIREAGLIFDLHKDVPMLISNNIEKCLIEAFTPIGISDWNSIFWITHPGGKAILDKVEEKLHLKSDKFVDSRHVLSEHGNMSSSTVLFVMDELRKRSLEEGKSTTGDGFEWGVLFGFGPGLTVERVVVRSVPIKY

[3] = biological target: T2, cannabidiolic acid synthase (CBDA synthase) (Cannabis sativa, UniProt A6P6V9); conditions: cited from earlier work
T2 sequence (A6P6V9 29-544): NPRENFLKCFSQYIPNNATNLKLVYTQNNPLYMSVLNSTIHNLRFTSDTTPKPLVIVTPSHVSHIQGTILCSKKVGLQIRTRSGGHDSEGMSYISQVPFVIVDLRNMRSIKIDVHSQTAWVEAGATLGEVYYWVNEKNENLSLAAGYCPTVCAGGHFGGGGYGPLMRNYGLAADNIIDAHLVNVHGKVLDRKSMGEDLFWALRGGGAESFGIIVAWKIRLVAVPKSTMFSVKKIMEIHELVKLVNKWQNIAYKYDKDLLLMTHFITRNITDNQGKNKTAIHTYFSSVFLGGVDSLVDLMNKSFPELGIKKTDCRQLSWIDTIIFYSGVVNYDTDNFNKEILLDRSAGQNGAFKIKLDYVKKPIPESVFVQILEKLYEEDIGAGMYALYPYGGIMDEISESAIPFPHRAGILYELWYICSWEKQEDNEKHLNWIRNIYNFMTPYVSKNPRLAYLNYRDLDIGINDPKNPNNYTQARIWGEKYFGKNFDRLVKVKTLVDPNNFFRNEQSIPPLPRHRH

[4] = biological target: T3, Tetrahydrocannabinolic acid synthase (THCA synthase) WT (Cannabis sativa, UniProt Q8GTB6); conditions: cited from earlier work
T3 sequence (Q8GTB6 29-545): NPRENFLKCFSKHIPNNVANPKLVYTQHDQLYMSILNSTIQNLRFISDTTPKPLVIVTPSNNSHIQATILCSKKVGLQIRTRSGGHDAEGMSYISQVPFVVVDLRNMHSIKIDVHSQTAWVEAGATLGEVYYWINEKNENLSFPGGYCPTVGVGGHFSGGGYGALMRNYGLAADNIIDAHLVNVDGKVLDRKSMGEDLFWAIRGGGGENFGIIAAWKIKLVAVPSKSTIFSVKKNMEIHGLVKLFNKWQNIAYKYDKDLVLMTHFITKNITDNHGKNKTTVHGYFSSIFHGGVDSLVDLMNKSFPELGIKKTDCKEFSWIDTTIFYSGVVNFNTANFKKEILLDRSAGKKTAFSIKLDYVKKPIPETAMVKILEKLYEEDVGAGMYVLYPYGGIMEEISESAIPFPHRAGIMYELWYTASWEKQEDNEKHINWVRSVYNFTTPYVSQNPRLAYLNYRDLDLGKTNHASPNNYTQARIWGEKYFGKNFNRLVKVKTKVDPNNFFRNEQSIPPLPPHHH

[5] = biological target: T4, P2X2 (Homo sapiens, UniProt Q9UBL9); assay: Plate-based aequorin luminescence assay of P2X2 expressed in yeast; type: cell-based; set-up: expressed in transfected cells; host or cells: Saccharomyces cerevisiae BY4741 dCne1p, genome-integrated under the GAL1 promoter, aequorin on a high-copy plasmid; conditions: for agonism / gating of P2X2: aequorin luminescence; for EC50: dose-response, area under luminescence curve
T4 sequence (Q9UBL9 1-471): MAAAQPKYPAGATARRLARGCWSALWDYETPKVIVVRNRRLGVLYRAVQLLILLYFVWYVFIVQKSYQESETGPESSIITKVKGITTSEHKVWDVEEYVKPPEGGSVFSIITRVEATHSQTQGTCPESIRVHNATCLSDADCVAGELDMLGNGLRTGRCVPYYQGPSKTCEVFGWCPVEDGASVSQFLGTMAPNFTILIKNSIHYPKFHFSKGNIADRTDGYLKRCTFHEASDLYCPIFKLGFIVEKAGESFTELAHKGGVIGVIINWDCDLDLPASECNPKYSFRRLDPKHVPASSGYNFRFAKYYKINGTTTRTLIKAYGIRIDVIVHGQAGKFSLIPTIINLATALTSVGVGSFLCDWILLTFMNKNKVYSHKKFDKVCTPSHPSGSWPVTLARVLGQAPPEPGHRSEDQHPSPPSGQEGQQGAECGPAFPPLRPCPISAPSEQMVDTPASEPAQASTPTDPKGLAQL
Description: Ion channel activity in yeast was tested with the purinergic P2X ion channel family. Channel gating was assessed by an aequorin assay in which aequorin is co-expressed with the receptor and, upon addition of the prosthetic group coelenterazine and addition of calcium, blue light is released. The aequorin-based functional assay was performed in all seven P2X receptors (FIG. 8). P2X1-7 were integrated into the chromosome to mitigate copy number variation between clones and were induced with galactose with the pGal1 promoter. […] Among those receptors that didn't work, it was suspected that improvements in expression and trafficking can improve functionality. For example, by modulating trafficking domains within the P2X4 receptor, aggregation was reduced in vesicles (FIG. 9), and it is believed that this tactic can be employed in other receptors. […] This can be because P2X2 has the slowest desensitization rates of the family (and is often considered “non-desensitizing”) and has the highest unitary conductance (30 pS).
To determine whether or not this truncated channel gated in yeast, an aequorin-based functional assay was used. Here aequorin, a bioluminescent protein, emits a photon upon binding calcium. This is done with the aid of coelenterazine, which must be added exogenously to yeast. The reaction is not catalytic, and the off-rate of calcium is too slow to observe on the timescales utilized in our assays. To optimize conditions for expression of both the receptor and reporter, a combination of integration, low-copy, and high-copy vectors was used. At this point, it was only possible to produce a signal upon addition of ATP, the native ligand, when both the receptor and reporter were expressed on high-copy plasmids (FIG. 56).
BY4741ΔCne1p cells were transformed with vectors containing P2X variants. Transformants were validated and made competent for a subsequent transformation with a vector containing aequorin under the expression of the constitutive PGK2 promoter. Overnight cells were induced with 2% […] for 20 hours. Following receptor expression, cells were collected by centrifugation and concentrated to 500 μL. The concentrated cells were then incubated with 5 μL of 1 mg/mL coelenterazine for 30 minutes at room temperature. Washed cells were then resuspended in softening buffer (1 M Sorbitol, 25 mM EDTA, 50 mM DTT), followed by washes in 1 M sorbitol and water. Cells were then resuspended in 50 mM MES/Tris pH 6.5 and aliquoted into a 96-well plate. Using an F500, 25 μL of cells were monitored for luminescence for 5 seconds. Upon addition of ligand or buffer (100 μL), cells were monitored for luminescence for varying times. Cell lysis was performed with the addition of 100 μL Tween20. For inhibition, varying concentrations of suramin were incubated with cells. Luminescence was monitored before and after the addition of 100 μL of 10 μM ATP. Areas under the curve were calculated and plotted against a negative control to determine the IC50.

[6] = biological target: T5, human CB2 receptor (Homo sapiens, UniProt P34972); type: cell-based; conditions: exogenously added ligand; GFP or zsGreen1 reporter
T5 construct: expressed in transfected cells; host or cells: Saccharomyces cerevisiae strains JG03-, JG04-, JG05-2.0 (zsGreen1 reporter), high-copy plasmid
Description: The ability of three of strains to couple to the human CB2 receptor expressed on a high-copy number plasmid was tested. Ga subunits that were predicted to couple to the receptor (Shim et al., 2013) were used. The dose-response of 2-arachidonyl glycerol, the native endocannabinoid, in strains differing only in the terminal 5 amino acids of the Gα protein. Control receptors were built that contained stop codons in the middle of the gene. These are referred to as ‘broken’ receptors.
Cells were washed 3 times and resuspended in PBS. Fluorescent (485 nm/515 nm) and cell density (600 nm) measurements were taken on a Cytation 5. Data were plotted and analyzed using SigmaPlot10. For CB2, strains JG03-, JG04-, and JG05-2.0 were transformed and treated the same. Broken receptor (stop codons) were also included in these assays.

[7] = biological target: wild-type CB2 receptor (Homo sapiens, UniProt P34972); conditions: Gertsch 2008; cited from earlier work
[8] = biological target: T6, CsAAE1 Hexanoyl CoA Synthase (Cannabis sativa, UniProt H9A1V3); conditions: cited from earlier work
T6 sequence (H9A1V3 1-720): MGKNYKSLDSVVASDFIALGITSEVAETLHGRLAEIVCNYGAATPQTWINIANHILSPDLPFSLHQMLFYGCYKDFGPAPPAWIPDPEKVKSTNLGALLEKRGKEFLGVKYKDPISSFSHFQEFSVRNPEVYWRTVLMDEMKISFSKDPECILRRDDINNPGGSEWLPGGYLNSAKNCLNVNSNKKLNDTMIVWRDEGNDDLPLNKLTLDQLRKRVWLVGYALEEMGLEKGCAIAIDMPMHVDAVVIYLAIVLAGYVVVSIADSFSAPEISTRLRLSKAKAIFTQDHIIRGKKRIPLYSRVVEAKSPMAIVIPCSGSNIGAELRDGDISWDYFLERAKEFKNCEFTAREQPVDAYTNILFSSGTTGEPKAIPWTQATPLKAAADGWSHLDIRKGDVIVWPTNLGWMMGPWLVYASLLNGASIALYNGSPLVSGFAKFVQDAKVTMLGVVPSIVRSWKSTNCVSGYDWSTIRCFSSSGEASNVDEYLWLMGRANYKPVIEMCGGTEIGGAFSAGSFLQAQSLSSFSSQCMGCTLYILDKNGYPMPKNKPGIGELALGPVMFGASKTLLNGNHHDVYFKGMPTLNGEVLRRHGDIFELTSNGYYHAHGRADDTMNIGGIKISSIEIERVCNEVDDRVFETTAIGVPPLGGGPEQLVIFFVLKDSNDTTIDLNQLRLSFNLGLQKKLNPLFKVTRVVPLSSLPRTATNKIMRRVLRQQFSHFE

T5 sequence (P34972 whole entry): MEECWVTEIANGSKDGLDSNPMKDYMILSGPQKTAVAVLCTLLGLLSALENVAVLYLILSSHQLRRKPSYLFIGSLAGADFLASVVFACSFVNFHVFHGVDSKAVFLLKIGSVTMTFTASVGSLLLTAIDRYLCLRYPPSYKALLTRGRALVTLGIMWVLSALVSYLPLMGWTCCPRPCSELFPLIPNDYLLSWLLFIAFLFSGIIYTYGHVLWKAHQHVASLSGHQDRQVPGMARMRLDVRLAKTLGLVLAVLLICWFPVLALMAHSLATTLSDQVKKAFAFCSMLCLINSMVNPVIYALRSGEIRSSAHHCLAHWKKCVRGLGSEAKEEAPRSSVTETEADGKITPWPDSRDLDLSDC
wild-type CB2 receptor, sequence (P34972 whole entry): as above

Compound: CCCCCc1cc(O)cc(O)c1 [olivetol]
- effect on yeast growth [1]: severely inhibit growth

Compound: CCCCCC(=O)CC(=O)CC(=O)CC(=O)SCCNC(=O)CCNC(=O)[C@H](O)C(C)(C)COP(=O)(O)OP(=O)(O)OC[C@H]1O[C@@H](n2cnc3c(N)ncnc32)[C@H](O)[C@@H]1OP(=O)(O)O [3,5,7-trioxododecanoyl-CoA]
- Km [2]: 56.9 µM
- kcat [2]: 0.0577 s⁻¹

Compound: CCCCCc1cc(O)c(C/C=C(\C)CCC=C(C)C)c(O)c1C(=O)O [CBGA, Cannabigerolic acid]
- effect on yeast growth [1]: modest growth defect; also recorded: far less inhibitory
- Km [3]: 137 µM
- kcat [3]: 0.19 s⁻¹
- Km [4]: 134 µM
- kcat [4]: .201 s⁻¹

Compound: Nc1ncnc2c1ncn2[C@@H]1O[C@H](COP(=O)(O)OP(=O)(O)NP(=O)(O)O)[C@@H](O)[C@H]1O [AMP-PNP, adenylyl-imidodiphosphate]
- agonism / gating of P2X2 [5]: did not gate P2X2

Compound: C=C(C)[C@@H]1CCC(C)=C[C@H]1c1c(O)cc(CCCCC)cc1O [CBD, cannabidiol]
- effect on yeast growth [1]: modest growth defect; also recorded: far less inhibitory

Compound: CCCCCC(=O)SCCNC(=O)CCNC(=O)[C@H](O)C(C)(C)COP(=O)(O)OP(=O)(O)OC[C@H]1O[C@@H](n2cnc3c(N)ncnc32)[C@H](O)[C@@H]1OP(=O)(O)O [Hexanoyl-CoA]
- Km [2]: 63.1 µM and 60.8 µM

Compound: 2′(3′)-O-(4-Benzoylbenzoyl)adenosine-5′-triphosphate [BzATP]
- amplitude of generated signal lower than either ATP or 2-Cl-ATP [5]: 3 orders of magnitude
- duration that the channel remains open, longer [5]: ~10 fold
- peak amplitude relative to that achieved with ATP [5]: approximately 20%
- agonism / gating of P2X2 [5]: partial agonism
- EC50 [5]: 29.1 ± 6 µM

Compound: Nc1nc(Cl)nc2c1ncn2[C@@H]1O[C@H](COP(=O)(O)OP(=O)(O)OP(=O)(O)O)[C@@H](O)[C@H]1O [2-Chloro ATP, 2-Chloro-Adenosinetriphosphate]
- agonism / gating of P2X2 [5]: full agonist behavior
- EC50 [5]: 26.7 ± 1.5 µM

Compound: C=C1CC/C=C(\C)CC[C@@H]2[C@@H]1CC2(C)C [β-caryophyllene]
- reporter response of CB2-expressing yeast to ligand [6]: dose-dependent up-regulation of GFP expression; also recorded: responded to high concentration
- detectable level of activation with the wild-type CB2 receptor [7]: 1.9 µM

Compound: CCCCCc1cc(O)cc(O)c1C(=O)O [olivetolic acid]
- effect on yeast growth [1]: strongly inhibit growth

Compound: CCCCCC(=O)O [Hexanoate, Hexanoic acid]
- effect on yeast growth [1]: severely inhibit growth
- effect on yeast growth ([1]; listed as Hexanoic acid): strongly inhibit growth
- Km [8]: 3700 µM
- kcat [8]: 2.0 s⁻¹
